In patent publication US8470829B2 (priority 2004, dated 2013):
Read-outs that look alike come from different tables or passages of the source.

Experiments:
[1] = molecular target: T1, human androgen receptor (Homo sapiens, UniProt P10275); experiment: Investigation of antagonist effect on androgen receptor (reporter gene assay, 11A11B2 cells, with DHT); type: cell-based
T1 construct: expressed in transfected cells
T1 sequence (P10275 1-920): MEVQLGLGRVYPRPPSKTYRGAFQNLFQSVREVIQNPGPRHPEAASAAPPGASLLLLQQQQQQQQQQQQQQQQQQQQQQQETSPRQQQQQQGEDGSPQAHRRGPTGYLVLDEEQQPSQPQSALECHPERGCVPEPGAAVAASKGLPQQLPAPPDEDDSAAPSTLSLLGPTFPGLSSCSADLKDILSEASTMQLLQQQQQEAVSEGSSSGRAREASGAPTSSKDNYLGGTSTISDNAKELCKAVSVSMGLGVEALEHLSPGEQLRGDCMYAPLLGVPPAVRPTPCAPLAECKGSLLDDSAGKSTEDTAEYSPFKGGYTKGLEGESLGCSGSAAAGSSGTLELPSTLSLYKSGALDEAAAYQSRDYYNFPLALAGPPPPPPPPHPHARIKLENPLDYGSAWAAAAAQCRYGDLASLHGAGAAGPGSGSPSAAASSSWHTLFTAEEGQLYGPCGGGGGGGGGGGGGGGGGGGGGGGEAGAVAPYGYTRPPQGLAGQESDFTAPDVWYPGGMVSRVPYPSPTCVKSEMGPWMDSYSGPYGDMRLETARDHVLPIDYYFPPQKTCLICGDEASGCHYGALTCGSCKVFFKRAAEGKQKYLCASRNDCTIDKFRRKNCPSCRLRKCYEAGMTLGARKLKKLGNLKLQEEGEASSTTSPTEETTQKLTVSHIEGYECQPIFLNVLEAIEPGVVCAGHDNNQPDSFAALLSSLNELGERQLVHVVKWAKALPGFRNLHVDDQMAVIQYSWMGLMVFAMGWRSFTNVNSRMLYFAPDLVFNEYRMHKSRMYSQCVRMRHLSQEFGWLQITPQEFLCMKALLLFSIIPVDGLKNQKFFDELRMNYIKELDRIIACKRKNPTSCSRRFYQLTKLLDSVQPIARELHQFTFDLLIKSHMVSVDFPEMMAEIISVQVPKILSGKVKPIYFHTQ
Description: (§1) HeLa cells (purchased from Dai-Nippon Seiyaku K. K.) were cultured overnight in Dulbecco's Modified Eagle Medium containing no phenol red, but containing 3% charcoal-treated fetal bovine serum (hereafter referred to as DCC-FBS) (this medium is hereafter referred to as phenol-red-free DMEM). An MMTV-Luc-Hyg vector (reporter plasmid with mouse mammary tumor virus long terminal repeat, containing an androgen response element and a hygromycin resistance gene: a vector obtained by substituting a chloramphenicol acetyl transferease gene of a GM-CAT vector (A.T.C.C No. 67282) purchased from the A.T.C.C. with the firefly luciferase gene, and inserting a hygromycin resistance gene as a drug resistant gene), and pSG5-hAR-neo (human androgen receptor expression vector: a vector having an androgen receptor gene under the control of the SV40 promoter, and having a neomycin resistance gene inserted as a drug resistance gene) were transfected into the HeLa cells using an FuGENE™ 6 Transfection Reagent (obtained from Roche).
(§2) The clone cells thus obtained (11A11B2 cells) were maintained and propagated using DMEM containing 400 μg/mL neomycin, 200 μg/mL hygromycin and 10% FBS, and were propagated using phenol-red-free DMEM containing 10% DCC-FBS three to four days prior to the performance of an androgen receptor reporter gene assay.
The 11A11B2 cells were inoculated in a white clear-bottomed 96-well microplate (COSTAR) so that the cell concentration was 1.0×10^4/well, and were cultured overnight. The assay medium containing DHT was added so that the final concentration of DHT was 0.1 nmol/L, and samples of the assay medium containing the compounds of the Examples or compounds of the Comparative Examples were added so that the final concentrations of the compounds of the Examples or compounds of the Comparative Examples were 1, 10, 100, 1,000 and 10,000 nmol/L, respectively. After culturing for 48, hours, the transcription activity values were measured. The transcription activity was measured using a Bright-Glo™ Luciferase Assay System (Promega).
(§3) The transcription activity rates of the compounds of the Examples were calculated from the transcription activity measured by the abovementioned method, with the transcription activity value obtained at 0.1 nmol/L DHT taken as 100%, and the transcription activity value in the case of the assay, medium alone taken as 0%.

[2] = molecular target: T1, human androgen receptor; experiment: Measurement of agonist effect on androgen receptor (reporter gene assay, 11A11B2 cells); type: cell-based; settings: compound concentration showing a transcription activity of 5% (0.1 nmol/L DHT = 100%, assay medium alone = 0%), 48 hours
Description: as §1, §2
The 11A11B2 cells were inoculated in a white clear-bottomed 96-well microplate (COSTAR) so that the cell concentration was 1.0×10^4/well, and were cultured overnight using phenol-red-free DMEM containing 3% DCC-FBS (hereafter referred to as the assay medium). Samples of the assay medium containing the compounds of the Examples and compounds of the Comparative Examples were added so that the final concentrations of the compounds of the Examples and compounds of the Comparative Examples were 1, 10, 100, 1,000 and 10,000 nmol/L), and the cells were cultured for 48 hours, after which the transcription activity value was measured. The transcription activity was measured using a Bright-Glo™ Luciferase Assay System (Promega).
as §3, with “assay” for “assay,”, “0%. The compound concentration showing a transcription activity of 5% (EC5 value) was calculated from a linear equation for two points on either side of 5%.” for “0%.”

[3] = with 0.1 nmol/L DHT, transcription activity rate of Test Example 1 subtracted, 11A11B2 cells, 48 hours, read-out: IC50

SMILES	IC50 [1, 3]	EC5 [2]	IC50 [1]
CCC(=O)N1CCC(N2C(=O)N(c3ccc(C#N)c(Cl)c3C)C(=O)C2(C)C)CC1 [Example 12, 4-[3-(1-propionylpiperidin-4-yl)-4,4-dimethyl-2,5-dioxoimidazolidin-1-yl]-2-chloro-3-methylbenzonitrile]	700 nM	>10 µM	
CC(=O)Nc1nc2cc(N3C(=S)N(c4ccc(C#N)c(Cl)c4)C(=O)C3(C)C)ccc2s1 [Example 16, 4-[3-(2-acetylaminobenzothiazol-5-yl)-4,4-dimethyl-5-oxo-2-thioxoimidazolidin-1-yl]-2-chlorobenzonitrile]		3 µM	40 nM
CC1(C)C(=O)N(c2ccc(C#N)c(C(F)(F)F)c2)C(=S)N1c1ccc2sc(NC(N)=O)nc2c1 [Example 18, {5-[3-(4-cyano-3-trifluoromethylphenyl)-5,5-dimethyl-4-oxo-2-thioxoimidazolidin-1-yl]-benzothiazol-2-yl}urea]		>10 µM	100 nM
COc1cc(N2C(=O)C(C)(C)N(c3ccc4sc(NC(N)=O)nc4c3)C2=S)ccc1C#N [Example 19, {5-[3-(4-cyano-3-methoxyphenyl)-5,5-dimethyl-4-oxo-2-thioxoimidazolidin-1-yl]-benzothiazol-2-yl}urea]	200 nM	>10 µM	
CC1(C)C(=O)N(c2ccc(C#N)c(Cl)c2)C(=S)N1c1ccc2sc(NC(N)=O)nc2c1 [Example 20, {5-[3-(4-cyano-3-chlorophenyl)-5,5-dimethyl-4-oxo-2-thioxoimidazolidin-1-yl]-benzothiazol-2-yl}urea]		>10 µM	100 nM
CC1(C)C(=O)N(c2ccc(C#N)c(C(F)(F)F)c2)C(=O)N1c1ccc(NC(=O)CN2CCNCC2)c(Cl)c1 [Example 21, N-{2-chloro-4-[3-(4-cyano-3-trifluoromethylphenyl)-5,5-dimethyl-2,4-dioxoimidazolidin-1-yl]-phenyl}-2-piperazin-1-ylacetamide]	500 nM	>10 µM	
CC(=O)Nc1cc(N2C(=S)N(c3ccc(C#N)c(C(F)(F)F)c3)C(=O)C2(C)C)ccc1Cl [Example 22, 4-[3-(3-acetylamino-4-chlorophenyl)-4,4-dimethyl-5-oxo-2-thioxoimidazolidin-1-yl]-2-trifluoromethylbenzonitrile]	200 nM	>10 µM	
CC(C)OC(=O)Nc1cc(N2C(=O)N(c3ccc(C#N)c(C(F)(F)F)c3)C(=O)C2(C)C)ccc1Cl [Example 23, 4-[3-(3-isopropoxycarbonylamino-4-chlorophenyl)-4,4-dimethyl-2,5-dioxoimidazolidin-1-yl]-2-trifluoromethylbenzonitrile]	500 nM	>10 µM	
CCOC(=O)Nc1cc(N2C(=O)N(c3ccc(C#N)c(OC)c3)C(=O)C2(C)C)ccc1Cl [Example 24, 4-[3-(3-ethoxycarbonylamino-4-chlorophenyl)-4,4-dimethyl-2,5-dioxoimidazolidin-1-yl]-2-methoxybenzonitrile]	200 nM	>10 µM	
COc1cc(N2C(=O)N(c3ccc(Cl)c(NC(=O)OC(C)C)c3)C(C)(C)C2=O)ccc1C#N [Example 25, 4-[3-(3-isopropoxycarbonylamino-4-chlorophenyl)-4,4-dimethyl-2,5-dioxoimidazolidin-1-yl]-2-methoxybenzonitrile]	400 nM	>10 µM	
CCCOC(=O)Nc1cc(N2C(=O)N(c3ccc(C#N)c(OC)c3)C(=O)C2(C)C)ccc1Cl [Example 26, 4-[3-(3-n-propoxycarbonylamino-4-chlorophenyl)-4,4-dimethyl-2,5-dioxoimidazolidin-1-yl]-2-methoxybenzonitrile]	200 nM	>10 µM	
CC1(C)C(=O)N(c2ccc(C#N)c(C(F)(F)F)c2)C(=O)N1c1ccc(Cl)c(NC(=O)OCCCO)c1 [Example 27, {2-chloro-5-[3-(4-cyano-3-trifluoromethylphenyl)-5,5-dimethyl-2,4-dioxoimidazolidin-1-yl]phenyl}-carbamic acid 3-hydroxypropyl ester]	400 nM	>10 µM	
CN(C)CCOC(=O)Nc1cc(N2C(=O)N(c3ccc(C#N)c(C(F)(F)F)c3)C(=O)C2(C)C)ccc1Cl [Example 28, {2-chloro-5-[3-(4-cyano-3-trifluoromethylphenyl)-5,5-dimethyl-2,4-dioxoimidazolidin-1-yl]phenyl}-carbamic acid 2-dimethylaminoethyl ester]	500 nM	>10 µM	
CN1CCN(CCOC(=O)Nc2cc(N3C(=O)N(c4ccc(C#N)c(C(F)(F)F)c4)C(=O)C3(C)C)ccc2Cl)CC1 [Example 29, {2-chloro-5-[3-(4-cyano-3-trifluoromethylphenyl)-5,5-dimethyl-2,4-dioxoimidazolidin-1-yl]phenyl}-carbamic acid 2-(4-methylpiperazin-1-yl)ethyl ester]	500 nM	>10 µM	
COC(=O)Nc1cc(N2C(=O)N(c3ccc(C#N)c(OC)c3)C(=O)C2(C)C)ccc1F [Example 30]	500 nM	>10 µM	
CN(C)CCOC(=O)Nc1cc(N2C(=O)N(c3ccc(C#N)c(Cl)c3)C(=O)C2(C)C)ccc1Cl [Example 31, {2-chloro-5-[3-(4-cyano-3-chlorophenyl)-5,5-dimethyl-2,4-dioxoimidazolidin-1-yl]phenyl}-carbamic acid 2-dimethylaminoethyl ester]		>10 µM	600 nM
CN(C)CCCOC(=O)Nc1cc(N2C(=O)N(c3ccc(C#N)c(C(F)(F)F)c3)C(=O)C2(C)C)ccc1Cl [Example 32, {2-chloro-5-[3-(4-cyano-3-trifluoromethylphenyl)-5,5-dimethyl-2,4-dioxoimidazolidin-1-yl]phenyl}-carbamic acid 3-dimethylaminopropyl ester]		>10 µM	500 nM
CC1(C)C(=O)N(c2ccc(C#N)c(C(F)(F)F)c2)C(=O)N1c1ccc(Cl)c(NC(=O)OCCCCO)c1 [Example 33, {2-chloro-5-[3-(4-cyano-3-trifluoromethylphenyl)-5,5-dimethyl-2,4-dioxoimidazolidin-1-yl]phenyl}-carbamic acid 4-hydroxybutyl ester]		>10 µM	300 nM
CN(C)CCOC(=O)N1CCC(N2C(=S)N(c3ccc(C#N)c(C(F)(F)F)c3)C(=O)C2(C)C)CC1 [Example 36]		>10 µM	500 nM
